System: isolation-reared male ddy mice
Assay: Aggressive behavior of isolation-reared (sociopsychological stress) mice
Format: in vivo
Conditions: six weeks after initiation of isolation-rearing, two mice in same cage for 20 minutes, vs solvent
Description: Conceivably, this phenomenon is attributed to the fact that rearing of experimental animals under conditions where social environmental change or social stimuli are absent imposes a kind of sociopsychological stress on the animals (“Mechanism of Sleep,” pp. 52-73 “Stress and Sleep,” Asakura Publishing Co., Ltd. (1997)). In Example 1, anti-stress effects of uridine and GABA (i.e., control) were evaluated through use of this phenomenon. Specifically, isolation-rearing of male ddy mice was initiated at four weeks old, to thereby impose sociopsychological stress (stress caused by isolation-rearing) on the mice. Thus, animal models for evaluation were prepared.
On the basis of this report, the following evaluation was carried out. Specifically, six weeks after initiation of isolation-rearing, two mice were placed in the same cage for 20 minutes, and the time during which aggressive behavior was observed was measured. The effect of uridine or GABA on prolongation of aggressive behavior was evaluated.
A test compound was suspended or dissolved in 0.5% aqueous carboxymethylcellulose solution, and the resultant suspension or solution was orally administered once a day, six days a week, until the end of the experiment.
Mice were divided into four groups. Mice of one group were group-reared and received a solvent. Mice of the other three groups were isolation-reared and received a solvent (100 mg/kg/day), uridine (100 mg/kg/day), and GABA (100 mg/kg/day), respectively. Observation of aggressive behavior was carried out in […] of mice in each group (n=9).
The experiment of Example 1 was repeated, except that the dose of uridine was changed to 10 mg/kg/day, and uridylic acid was administered in place of GABA at a dose of 1 g/kg/day.

[1] = 100 mg/kg/day oral, once a day six days a week

SMILES | time during which aggressive behavior was observed [1] | time during which aggressive behavior was observed (10 mg/kg/day oral (low-dose)) | time during which aggressive behavior was observed (1 g/kg/day oral)
NCCCC(=O)O [GABA, γ-aminobutyric acid, reference compound] | significantly reduced |  | 
O=c1ccn([C@@H]2O[C@H](CO)[C@@H](O)[C@H]2O)c(=O)[nH]1 [uridine] | significantly reduced | significantly reduced | 
O=c1ccn([C@@H]2O[C@H](COP(=O)(O)O)[C@@H](O)[C@H]2O)c(=O)[nH]1 [uridylic acid] |  |  | significantly reduced

From patent US8017594B2, “Agent against psychosocial stresses” (Yamasa Corporation, priority 2006, dated 2011)
